Earlier results on 1 molecule are cited in PMC8604667 (International Journal of Pharmaceutics: X, 2021).

The conditions of data set [1]: ref Venditto and Simanek, 2010.
Another data set has as its system P-glycoprotein. Conditions: ref Takemoto et al., 2006; Negi et al., 2013.

Regarding `CC[C@@]1(O)C(=O)OCc2c1cc1n(c2=O)Cc2cc3ccccc3nc2-1` [camptothecin, Camptothecin], in data set [1], the “pH at which lactone and carboxylate forms co-exist at 50%” value is 6.65. For the same molecule, in the data set with P-glycoprotein, the P-glycoprotein substrate result is recorded as “P-glycoprotein substrate”.
